Reference: paper PMC12802263 (mBio, 2025)

Experiments:
DncV = DncV (Vibrio cholerae, UniProt Q9KVG7); test: biochemical
CapV = CapV (Vibrio cholerae, UniProt Q9KVG8); settings: 50 mM Na3PO4, pH 7.4, 300 mM NaCl, 10% glycerol, 37 °C
Chain of CapV (Q9KVG8 whole entry, looked up): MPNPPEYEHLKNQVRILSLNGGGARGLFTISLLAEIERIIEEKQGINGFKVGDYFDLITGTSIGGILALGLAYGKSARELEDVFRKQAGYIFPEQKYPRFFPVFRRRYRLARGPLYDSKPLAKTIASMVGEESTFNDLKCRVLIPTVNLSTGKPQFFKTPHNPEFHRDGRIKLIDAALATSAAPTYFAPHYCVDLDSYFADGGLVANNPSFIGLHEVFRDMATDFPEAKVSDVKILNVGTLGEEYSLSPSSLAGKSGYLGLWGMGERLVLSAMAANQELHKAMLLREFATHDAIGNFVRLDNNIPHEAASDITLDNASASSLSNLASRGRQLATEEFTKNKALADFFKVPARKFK

Chain of DncV (Q9KVG7 whole entry, looked up): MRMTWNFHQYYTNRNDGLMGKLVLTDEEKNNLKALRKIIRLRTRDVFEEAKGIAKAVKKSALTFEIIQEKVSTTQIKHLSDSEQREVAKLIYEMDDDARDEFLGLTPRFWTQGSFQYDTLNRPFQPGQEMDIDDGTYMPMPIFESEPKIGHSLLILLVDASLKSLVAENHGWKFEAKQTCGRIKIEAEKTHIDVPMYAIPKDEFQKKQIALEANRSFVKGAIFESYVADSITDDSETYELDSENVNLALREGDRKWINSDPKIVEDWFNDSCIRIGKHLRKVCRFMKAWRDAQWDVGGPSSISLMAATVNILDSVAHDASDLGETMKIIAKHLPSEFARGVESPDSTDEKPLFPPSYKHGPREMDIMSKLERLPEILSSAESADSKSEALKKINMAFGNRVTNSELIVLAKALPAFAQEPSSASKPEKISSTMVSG

Row | SMILES | Kd (DncV) [µM] | fluorogenic phospholipase assay (ex 550 / em 591 nm) (CapV)
1 | Nc1nc2c(c(=O)[nH]1)N[C@@H](CNc1ccc(C(=O)N[C@@H](CCC(=O)O)C(=O)O)cc1)CN2 [THF, tetrahydrofolate] | 3.59 | 
2 | CCCC(=O)Oc1ccc2nc3ccc(=O)cc-3oc2c1 [Resorufin butyrate] |  | phospholipase activity of the proteins CapV and CapV^S62A was detected using the fluorescent substrate Resorufin
3 | Nc1nc2c(ncn2[C@@H]2O[C@H](COP(=O)(O)OP(=O)(O)OP(=O)(O)O)[C@@H](O)[C@H]2O)c(=O)[nH]1 [GTP] | 2.63 | 
